This note sets out measurements from ChEMBL document CHEMBL1201862, “PubChem BioAssay data set” (2004).

SMILES strings stand for the structures.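 How tested: cells in 96-well plates exposed to compound for 48 hours at five concentrations. GI50 = concentration required for 50% inhibition of growth.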 Calls of active or inactive are those of the source. Rule as the data show it: active = GI50 up to about 1.1 µM and inactive = higher.

Among the test systems are RXF 393; SK-OV-3; HOP-62; HCT-116; MCF7; IGROV-1; LOX IMVI; RPMI-8226; HCT-15; SNB-75; KM12; 786-0; SF-295; UACC-62; OVCAR-4; CAKI-1; K562; NCI-H522; SK-MEL-5; SR.
Common to all, as to assay: DTP human tumour cell line panel, 48 h

By GI50 is commonly meant the concentration at which growth is held to half of that of the control. As for `N#Cc1nnn(-c2ccc(Br)cc2)c1O`, the GI50 in the test with RXF 393, in the test on SK-OV-3, in the test with HOP-62, with HCT-116, with MCF7 and with IGROV-1 was > 100 µM (inactive) throughout. For the same compound, the GI50 in the test on LOX IMVI was > 100 µM (inactive); with RPMI-8226 it was > 100 µM (inactive); in the test with HCT-15, more than 100 µM; in the test on SNB-75, > 100 µM (inactive); in the test on KM12, > 100 µM (inactive); in the test with 786-0, > 100 µM (inactive). For the same compound, the GI50 in the test on SF-295, in the test on UACC-62, in the test on OVCAR-4, in the test on CAKI-1, in the test on K562 and with NCI-H522 was > 100 µM (inactive) throughout.
For the compound `C=CC1=C(C)c2cc3[nH]c(c4c5nc(cc6[nH]c(cc1n2)c(C)c6CC)C=C5C(=O)C4C(=O)OC)C(CCC(=O)OC/C=C(\C)CCCC(C)CCCC(C)CCCC(C)C)C3C.C=CC1=C(C)c2cc3[nH]c(c4c5nc(cc6[nH]c(cc1n2)c(C=O)c6CC)C=C5C(=O)C4C(=O)OC)C(CCC(=O)OC/C=C(\C)CCCC(C)CCCC(C)CCCC(C)C)C3C` (stereo not drawn), the GI50 in the test with SK-OV-3 is > 100 µM (inactive); in the test on HOP-62, > 100 µM (inactive); in the test on HCT-116, > 100 µM (inactive); in the test on MCF7 it was > 100 µM (inactive); in the test on IGROV-1, 38.9 µM (inactive); in the test with LOX IMVI, > 100 µM (inactive). Besides, the GI50 is > 100 µM (inactive) in the test with SK-MEL-5; > 100 µM (inactive) with RPMI-8226; more than 100 µM in the test with HCT-15; > 100 µM (inactive) in the test with SNB-75; > 100 µM (inactive) with KM12; > 100 µM (inactive) with 786-0. In addition, the GI50 in the test on SR, with SF-295, in the test with UACC-62, in the test on OVCAR-4, in the test with CAKI-1 and in the test with K562 was > 100 µM (inactive) in each case. Besides, the GI50 in the test on NCI-H522 is 22.6 µM (inactive).
In the case of `OCCN1c2ccccc2Sc2ccccc21`, the GI50 in the test with SK-OV-3, in the test with HOP-62, in the test with HCT-116, in the test on MCF7, in the test on LOX IMVI and in the test on SK-MEL-5 was > 10 µM (inactive) each time. Besides, the GI50 in the test on RPMI-8226 was > 10 µM (inactive); in the test on HCT-15 it was more than 10 µM; with SNB-75, > 10 µM (inactive); in the test on KM12, > 10 µM (inactive); with 786-0 it was > 10 µM (inactive); in the test with SR, > 10 µM (inactive). In addition, the GI50 in the test with SF-295, in the test with OVCAR-4, in the test with CAKI-1, with K562 and in the test with NCI-H522 was > 10 µM (inactive) throughout.
As to `O=C(C1C(c2ccccc2)N1C(c1ccccc1)c1ccccc1)C1C(c2ccccc2)N1C(c1ccccc1)c1ccccc1` (stereo not drawn), the GI50 with SK-OV-3 was > 100 µM (inactive); in the test on HOP-62, > 100 µM (inactive); in the test on HCT-116, 5.08 µM (inactive); in the test with MCF7 it was 5.31 µM (inactive); in the test on IGROV-1, > 10 µM (inactive); in the test with SK-MEL-5, 20.6 µM (inactive). Besides, the GI50 was 3.59 µM (inactive) with RPMI-8226; more than 10 µM in the test with HCT-15; 45.6 µM (inactive) in the test with SNB-75; 26.9 µM (inactive) in the test on KM12; 21.3 µM (inactive) in the test with 786-0; 3.51 µM (inactive) with SR. The GI50 in the test with SF-295 is 75.7 µM (inactive); in the test on OVCAR-4 it was 38.1 µM (inactive); in the test with K562 it was 3.66 µM (inactive); in the test on NCI-H522, 5.71 µM (inactive).
Take `C=C[C@@](C)(/C=C/c1ccc(O)cc1)CCC=C(C)C` [BAKUCHIOL]: the GI50 was 16.3 µM (inactive) in the test with SK-OV-3; 19.1 µM (inactive) in the test on HOP-62; 18.1 µM (inactive) in the test on HCT-116; 19.5 µM (inactive) in the test with MCF7; 15.8 µM (inactive) with IGROV-1; 18.2 µM (inactive) with LOX IMVI. The GI50 was 16 µM (inactive) in the test with SK-MEL-5; 14.9 µM (inactive) in the test with RPMI-8226; 16.8 µM in the test on HCT-15; 14 µM (inactive) with SNB-75; 16.5 µM (inactive) in the test with SR; 20.2 µM (inactive) in the test with SF-295. Also, the GI50 with OVCAR-4 was 14 µM (inactive); in the test on CAKI-1, 18.6 µM (inactive); in the test on K562, 15.7 µM (inactive); in the test on NCI-H522, 17.1 µM (inactive).
As for `NCC(=O)N[C@H]1c2ccsc2/C(=N/O)[C@H]1O`, the GI50 in the test on RXF 393, in the test with SK-OV-3, with HOP-62, in the test on HCT-116, with MCF7 and in the test on IGROV-1 was > 100 µM (inactive) throughout. The GI50 in the test with LOX IMVI was > 100 µM (inactive); in the test on SK-MEL-5, > 100 µM (inactive); in the test with HCT-15, more than 100 µM; in the test with SR it was > 100 µM (inactive); in the test with SF-295, > 100 µM (inactive); in the test on UACC-62, > 100 µM (inactive). Also, the results for the GI50 in the test on OVCAR-4, with CAKI-1 and in the test on K562 were 68.9 µM (inactive), > 100 µM (inactive) and > 100 µM (inactive), respectively.
In the case of `O=C1CC2(CCC(O)(c3cccc4ccccc34)C(C(=O)c3cccc4ccccc34)C2)C(=O)c2ccccc2N1` (stereo not drawn), the GI50 with RXF 393 was 4.1 µM (inactive); in the test with SK-OV-3, 46.3 µM (inactive); with HOP-62 it was 10.5 µM (inactive); with HCT-116, 23.6 µM (inactive); in the test with MCF7, 36 µM (inactive); in the test with IGROV-1 it was > 100 µM (inactive). Also, the GI50 in the test with LOX IMVI was 32.8 µM (inactive); with SK-MEL-5, 24.8 µM (inactive); in the test with HCT-15 it was 26.4 µM; in the test with SNB-75, 10.7 µM (inactive); in the test with SR, 14.2 µM (inactive); in the test with SF-295, 12.6 µM (inactive). The values for the GI50 in the test on UACC-62, in the test with CAKI-1 and in the test on K562 were 81.5 µM (inactive), 25.9 µM (inactive) and 15.6 µM (inactive), respectively.
Turning to `COC(=O)[C@H](Cc1ccccc1)NP(=O)(O)OCC1C=CC(n2cc(C)c(=O)[nH]c2=O)O1` (stereo partly drawn), the GI50 with RXF 393, with SK-OV-3, with HOP-62, in the test with HCT-116, with MCF7 and in the test with IGROV-1 was > 100 µM (inactive) in each case. The GI50 is > 100 µM (inactive) in the test with LOX IMVI; > 100 µM (inactive) in the test with SK-MEL-5; > 100 µM (inactive) in the test on RPMI-8226; more than 100 µM with HCT-15; > 100 µM (inactive) in the test on SNB-75; > 100 µM (inactive) in the test on KM12. The GI50 in the test with 786-0, in the test with SF-295, in the test with UACC-62, in the test on OVCAR-4, in the test with CAKI-1 and with K562 was > 100 µM (inactive) in each case. In addition, in the test with NCI-H522, the GI50 was > 100 µM (inactive).
As for `CC(C)c1oc(=O)cc2c1C(O)C1OC(=O)C3(C)C(O)C4OC4C2(C)C13` (stereo not drawn) [NAGILACTONE], the GI50 in the test with RXF 393 is 1.62 µM (inactive); in the test with SK-OV-3, 5.2 µM (inactive); with HOP-62, 2.15 µM (inactive); in the test on HCT-116, 1.09 µM (active); with MCF7, 0.728 µM (active); with IGROV-1 it was 2.75 µM (inactive). Besides, the GI50 is 0.653 µM (active) in the test on LOX IMVI; 0.628 µM (active) in the test on SK-MEL-5; 1.1 µM (active) in the test on RPMI-8226; 2.07 µM with HCT-15; 1.92 µM (inactive) in the test with SNB-75; 1.72 µM (inactive) in the test with KM12. Further, the GI50 in the test with SF-295 was 1.65 µM (inactive); in the test with UACC-62, 1.38 µM (inactive); in the test on OVCAR-4 it was 2.12 µM (inactive); in the test with CAKI-1, 2.08 µM (inactive); in the test on K562, 1.01 µM (active); with NCI-H522, 1.15 µM (inactive).
For `O=c1cc(N2CCCC2)[nH]c(=O)n1-c1ccccc1`, the GI50 in the test on HOP-62, with HCT-116, in the test on MCF7, in the test with IGROV-1, in the test with LOX IMVI and with SK-MEL-5 was > 100 µM (inactive) in each case. Further, the GI50 is > 100 µM (inactive) in the test with RPMI-8226; more than 100 µM in the test on HCT-15; > 100 µM (inactive) with SNB-75; > 100 µM (inactive) in the test on KM12; > 100 µM (inactive) in the test with 786-0; > 100 µM (inactive) with SR. For the same compound, the GI50 with SF-295, in the test on OVCAR-4, in the test with CAKI-1, in the test on K562 and in the test on NCI-H522 was > 100 µM (inactive) throughout.
On to `CCn1c(=O)c(C(=O)O)c(Cl)c2cc3c(cc21)OCO3`, for which the GI50 in the test on RXF 393, in the test with SK-OV-3, in the test on HOP-62, with HCT-116, in the test on MCF7 and with IGROV-1 was > 100 µM (inactive) each time. The GI50 in the test with LOX IMVI was > 100 µM (inactive); in the test on SK-MEL-5, > 100 µM (inactive); with RPMI-8226 it was > 100 µM (inactive); in the test with HCT-15, more than 100 µM; in the test on SNB-75, > 100 µM (inactive); in the test with KM12, > 100 µM (inactive). Further, the GI50 in the test with SF-295, in the test with UACC-62, in the test on OVCAR-4, in the test on CAKI-1, with K562 and in the test on NCI-H522 was > 100 µM (inactive) each time.
